Data published in the supplement of paper PMC10307832.

compound: CC(C)(C)c1cc(NC(=O)Nc2ccc(-c3cn4c(n3)sc3cc(OCCN5CCOCC5)ccc34)cc2)no1 [Quizartinib] + CS(=O)(=O)CCNCc1ccc(-c2ccc3ncnc(Nc4ccc(OCc5cccc(F)c5)c(Cl)c4)c3c2)o1 [Lapatinib] (partner 2 µM); test: relative viability (nuclei count vs DMSO), 5 days (fraction); higher = more cells survive; details: first compound 0.001 µM
Procedure, shortened: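 Medians of duplicate plates are given as relative viability. That measure is the nuclei count in treated wells divided by the count in vehicle wells. Counts were taken on 4× images of lung cancer cell lines in 1536-well plates, 5 days after pin-tool dosing the day after seeding with one drug alone or a fixed anchor-drug dose plus five library-drug doses (not always all listed) in √10 steps.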

| Cell Line | relative viability |
| --- | --- |
| EKVX | 0.188 |
| EPLC-272H | 0.681 |
| NCI-H520 | 0.649 |
| NCI-H1563 | 0.697 |
| NCI-H650 | 0.888 |
| RERF-LC-KJ | 0.883 |
| HCC-827 | 0.196 |
| NCI-H2087 | 0.665 |
| SK-MES-1 | 0.464 |
| NCI-H1299 | 0.983 |
| NCI-H1651 | 0.718 |
| UMC-11 | 0.499 |
| NCI-H1355 | 0.979 |
| H3255 | 0.264 |
| NCI-H1792 | 0.796 |
| NCI-H647 | 0.966 |

| Cell Line | relative viability |
| --- | --- |
| Calu-6 | 1.02 |
| NCI-H1703 | 1.18 |
| LXF-289 | 0.788 |
| LU99A | 0.857 |
| NCI-H2023 | 0.0985 |
| NCI-H2228 | 1.11 |
| NCI-H1437 | 0.738 |
| NCI-H1395 | 0.992 |
| NCI-H2009 | 0.141 |
| HCC-366 | 0.931 |
| EBC-1 | 0.23 |
| IA-LM | 0.983 |
| NCI-H2170 | 0.257 |
| A549 | 0.919 |
| NCI-H1793 | 0.533 |
| NCI-H1650 | 0.189 |

same assay, conditions: first compound 0.003162 µM

| Cell Line | relative viability |
| --- | --- |
| EKVX | 0.223 |
| EPLC-272H | 1.07 |
| NCI-H520 | 0.766 |
| NCI-H1563 | 0.824 |
| NCI-H650 | 0.754 |
| RERF-LC-KJ | 0.766 |
| HCC-827 | 0.22 |
| NCI-H2087 | 0.906 |
| SK-MES-1 | 0.428 |
| NCI-H1299 | 0.932 |
| NCI-H1651 | 0.831 |
| UMC-11 | 0.945 |
| NCI-H1355 | 0.992 |
| H3255 | 0.238 |
| NCI-H1792 | 0.853 |
| NCI-H647 | 1.1 |
| Calu-6 | 0.986 |

| Cell Line | relative viability |
| --- | --- |
| LCLC-97TM1 | 0.862 |
| NCI-H1703 | 0.432 |
| LXF-289 | 0.838 |
| LU99A | 0.901 |
| NCI-H2023 | 0.819 |
| NCI-H2228 | 1.1 |
| NCI-H1437 | 0.827 |
| NCI-H1395 | 0.941 |
| NCI-H2009 | 0.865 |
| HCC-366 | 0.992 |
| EBC-1 | 0.209 |
| IA-LM | 0.718 |
| NCI-H2170 | 0.273 |
| A549 | 0.912 |
| NCI-H1793 | 0.743 |
| NCI-H1650 | 0.782 |

same assay, conditions: first compound 0.01 µM

| Cell Line | relative viability |
| --- | --- |
| EKVX | 0.204 |
| EPLC-272H | 0.834 |
| NCI-H520 | 0.828 |
| NCI-H1563 | 0.935 |
| NCI-H650 | 0.726 |
| RERF-LC-KJ | 0.864 |
| HCC-827 | 0.19 |
| NCI-H2087 | 1 |
| SK-MES-1 | 0.421 |
| NCI-H1299 | 0.956 |
| NCI-H1651 | 0.781 |
| UMC-11 | 1.14 |
| NCI-H1355 | 1 |
| H3255 | 0.212 |
| NCI-H1792 | 0.969 |
| NCI-H647 | 1.12 |
| Calu-6 | 1.15 |

| Cell Line | relative viability |
| --- | --- |
| LCLC-97TM1 | 0.527 |
| NCI-H1703 | 0.379 |
| LXF-289 | 0.932 |
| LU99A | 0.999 |
| NCI-H2023 | 0.737 |
| NCI-H2228 | 1.47 |
| NCI-H1437 | 0.764 |
| NCI-H1395 | 0.883 |
| NCI-H2009 | 0.884 |
| HCC-366 | 1.06 |
| EBC-1 | 0.202 |
| IA-LM | 0.86 |
| NCI-H2170 | 0.253 |
| A549 | 0.998 |
| NCI-H1793 | 0.82 |
| NCI-H1650 | 0.579 |

same assay, conditions: first compound 0.03162 µM

| Cell Line | relative viability |
| --- | --- |
| EKVX | 0.202 |
| EPLC-272H | 0.923 |
| NCI-H520 | 0.85 |
| NCI-H650 | 0.688 |
| RERF-LC-KJ | 0.864 |
| HCC-827 | 0.164 |
| NCI-H2087 | 1.09 |
| SK-MES-1 | 0.428 |
| NCI-H1299 | 0.922 |
| NCI-H1651 | 0.274 |
| UMC-11 | 0.889 |
| NCI-H1355 | 0.914 |
| H3255 | 0.28 |
| NCI-H1792 | 0.866 |
| NCI-H647 | 0.97 |
| Calu-6 | 0.815 |
| LCLC-97TM1 | 0.848 |
| NCI-H1703 | 0.216 |
| LXF-289 | 0.923 |
| LU99A | 1 |
| NCI-H2023 | 0.293 |
| NCI-H2228 | 0.764 |
| NCI-H1437 | 0.45 |
| NCI-H1395 | 0.842 |
| NCI-H2009 | 0.695 |
| HCC-366 | 0.897 |
| EBC-1 | 0.207 |
| NCI-H2170 | 0.262 |
| A549 | 0.59 |
| NCI-H1793 | 0.899 |

same assay, conditions: first compound 0.1 µM

| Cell Line | relative viability |
| --- | --- |
| EKVX | 0.407 |
| EPLC-272H | 1.34 |
| NCI-H520 | 0.591 |
| NCI-H1563 | 0.897 |
| NCI-H650 | 1.1 |
| RERF-LC-KJ | 0.777 |
| HCC-827 | 0.214 |
| NCI-H2087 | 0.935 |
| SK-MES-1 | 0.442 |
| NCI-H1299 | 0.903 |
| NCI-H1651 | 0.821 |
| UMC-11 | 1.02 |
| NCI-H1355 | 1.06 |
| H3255 | 0.241 |
| NCI-H1792 | 0.932 |
| NCI-H647 | 0.985 |
| Calu-6 | 1.09 |
| LCLC-97TM1 | 1.43 |
| NCI-H1703 | 0.315 |
| LXF-289 | 0.892 |
| LU99A | 0.968 |
| NCI-H2023 | 0.846 |
| NCI-H2228 | 1 |
| NCI-H1437 | 0.543 |
| NCI-H1395 | 1.2 |
| NCI-H2009 | 0.93 |
| HCC-366 | 1 |
| EBC-1 | 0.197 |
